What was measured:
[1] = tested on: Human Foreskin Fibroblasts (HFFs); test: WST-1 Cell Proliferation Assay in HFFs; type: cell-based; details: 1/1000 and 2/1000 dilutions
From the text: The WST-1 Cell Proliferation Assay provides a sensitive and accurate assay for cell proliferation and cytotoxicity (cell viability). The WST assay is based on the cleavage of the tetrazolium salt WST-1 to formazan by cellular mitochondrial dehydrogenases. Expansion in the number of viable cells results in an increase in the overall activity of the mitochondrial dehydrogenases in the sample. The augmentation in enzyme activity results in an increase in the amount of formazan dye formed. The formazan dye produced by viable cells was quantified by a multi-well spectrophotometer by measuring the absorbance of the dye solution at 440 nm. The compound provided was tested in the WST assay over a range of dilutions. […] The results of the assay show the standard deviation (SD) for 1,5-DCQA (2066) and the control, and the mean values for 1,5-DCQA (2066) and the control.

p16 = test: Taqman Real Time-PCR expression of p16 in HFFs with/without H2O2 stress-induced premature senescence; type: cell-based, Human; details: for ddct (1.275) (P16) / Relative Expression of P16 / dCt (P16) / P16 (Ct): 1/1000 dilution; for dCt (P16): vs HPRT
Protocol: (§1) The following results shown in FIGS. 2 to 7 relate to the analysis of Senescence tests on compound 2066 (1,5-dicaffeoylquinic acid or 1,5-DCQA). The experiments were conducted using Human Foreskin Fibroblasts (HFFs).
(§2) In the following experiments, HFFs were challenged for a period of two hours with 150 μM hydrogen peroxide (H2O2), to stimulate premature senescence in the presence and absence of 1,5-Dicaffeoylquinic acid (1/1000 dilution), and subsequently assayed by Taqman Real Time-PCR for the expression of key senescence associated genes.
(§3) The results shown in Table 2 and FIGS. 2 to 7 were generated using the polymerase chain reaction (PCR), wherein the dCt and ddCT values are results used in statistical analysis. The abbreviation dCt relates to “delta cycle threshold” and the abbreviation ddCt relates to “delta delta cycle threshold”. In these experiments, HPRT (hypoxanthine phosphoribosyltransferase, a protein from the HPRT-1 gene) was used as a control.

p21 = test: Taqman Real Time-PCR expression of p21 in HFFs with/without H2O2 stress; type: cell-based, Human; details: for ddct (−3.761) (P21) / Relative Expression of P21 / dCt (P21) / P21 (Ct): 1/1000 dilution; for dCt (P21): vs HPRT
Protocol: as §1, §2, §3

Sirtuin 2 (SIRT2) = test: Taqman Real Time-PCR expression of Sirtuin 2 in HFFs with/without H2O2 stress; type: cell-based, Human; details: for ddct (−0.016) (SIRT2) / Relative Expression of SIRT2 / dCt (SIRT2) / SIRT2 (Ct): 1/1000 dilution; for dCt (SIRT2): vs HPRT
Protocol: as §1, §2
(§4) These genes are involved in cell cycle regulation and mitochondrial stress responses. Challenge with a near lethal level of oxidant stress typically induces an increase in SIRT2 and decrease in SIRT3 expression. […] This is indicative of each having a potential for stimulating cell proliferation in the absence of oxidant challenge.
as §3

Sirtuin 3 (SIRT3) = test: Taqman Real Time-PCR expression of Sirtuin 3 in HFFs with/without H2O2 stress; type: cell-based, Human; details: for ddct (−2.079) (SIRT3) / Relative Expression of SIRT3 / dCt (SIRT3) / SIRT3 (Ct): 1/1000 dilution; for dCt (SIRT3): vs HPRT
Protocol: as §1, §2, §4, §3

XRCC5 = test: Taqman Real Time-PCR expression of XRCC5 in HFFs with/without H2O2 stress; type: cell-based, Human; details: for ddct (−1.292) (XRCC5) / Relative Expression of XRCC5 / dCt (XRCC5) / XRCC5 (Ct): 1/1000 dilution; for dCt (XRCC5): vs HPRT
Protocol: as §1, §2
XRCC5 is a double strand break repair protein.
as §3

hPOT1 = test: Taqman Real Time-PCR expression of hPOT1 in HFFs with/without H2O2 stress; type: cell-based, Human; details: for ddct (−1.835) (hPOT1) / Relative Expression of hPOT1 / dct (hPOT1) / HPOT1 (Ct): 1/1000 dilution; for dct (hPOT1): vs HPRT
Protocol: as §1, §2
These findings are supported by an analysis of the Protection of Telomeres gene (POT 1).
as §3

p65 = test: Western blot of LNCaP cell extracts probed for p65; type: cell-based; details: LNCaP cells; 24 hours; 0.1, 1, 3, 10, 30, 100 μM
Protocol: (§5) Lanes 1 and 2 of the Western blot show the expression levels Hela control lysates comprising TNF-alpha (TNFα), in stimulated and unstimulated conditions. Lanes 3 and 4 show the results of LNCaP cell extracts, in stimulated and unstimulated conditions. In this case, the vehicle used is ethanol. Lanes 5 to 10 show the results of LNCaP cell extracts incubated for 24 hours in 0.1, 1, 3, 10, 30, 100 μM of 1,5-DCQA, respectively. Tubulin (50kD) was used as a loading control.

Pp65 (ser 536) = test: Western blot of LNCaP cell extracts probed for Pp65 (ser 536); type: cell-based; details: LNCaP cells; 24 hours; 0.1, 1, 3, 10, 30, 100 μM
Protocol: as §5

MMP-9 = test: Western blot of LNCaP cell extracts probed for MMP-9; type: cell-based; details: LNCaP cells; 24 hours; at 0.1 μM to 100 μM
Protocol: as §5

[2] = & stress (150 μM H2O2, two hours)
[3] = HFFs, & stress (150 μM H2O2, two hours)

`O=C(/C=C/c1ccc(O)c(O)c1)O[C@@H]1C[C@](OC(=O)/C=C/c2ccc(O)c(O)c2)(C(=O)O)C[C@@H](O)[C@H]1O` [1,5-DCQA, 1,5-dicaffeoylquinic acid] was tested, and the “cell viability (WST-1)” value [1] was “beneficial to cell viability”, the “protection of p16 expression from oxidant challenge” value (p16; 150 μM H2O2) was “excellent protection from oxidant challenge” and the “ddct (1.275) (P16)” value (p16; & stress (150 μM H2O2)) was −0.519. For the same compound, the “Relative Expression of P16” value (p16; & stress (150 μM H2O2), media = 1.000, stress alone 3.151) was 1.433, the “dCt (P16)” value (p16; & stress (150 μM H2O2)) was 0.756 and the “P16 (Ct)” value (p16; [2]) was 28.09. The “P16 (Ct)” value (p16; no stress) was 27.66, the “ddct (1.275) (P16)” value (p16; no stress) was 0.050 and the “Relative Expression of P16” value (p16; no stress, media = 1.000) was 0.966. The “dCt (P16)” value (p16; no stress) was 1.325, the “effect on p16 expression in untreated cells” value (p16; no H2O2) was “no stress effect” and the “p21 expression levels following stress” value (p21; 150 μM H2O2) was “substantially unchanged”. The “ddct (−3.761) (P21)” value (p21; & stress (150 μM H2O2)) was −2.263, the “Relative Expression of P21” value (p21; & stress (150 μM H2O2), media = 1.000, stress alone 4.519) was 4.801 and the “dCt (P21)” value (p21; & stress (150 μM H2O2)) was −6.024. For the same compound, the “P21 (Ct)” value (p21; [2]) was 21.31, the “P21 (Ct)” value (p21; no stress) was 22.4 and the “ddct (−3.761) (P21)” value (p21; no stress) was −0.167. The “Relative Expression of P21” value (p21; no stress, media = 1.000) was 1.122, the “dCt (P21)” value (p21; no stress) was −3.928 and the “ddct (−0.016) (SIRT2)” value (Sirtuin 2 (SIRT2); HFFs, & stress (150 μM H2O2)) was 0.371. The “Relative Expression of SIRT2” value (Sirtuin 2 (SIRT2); HFFs, & stress (150 μM H2O2), media = 1.000, stress alone 0.762) was 0.773, the “dCt (SIRT2)” value (Sirtuin 2 (SIRT2); HFFs, & stress (150 μM H2O2)) was 0.387 and the “SIRT2 (Ct)” value (Sirtuin 2 (SIRT2); [3]) was 27.72. The “SIRT2 (Ct)” value (Sirtuin 2 (SIRT2); HFFs, no stress) was 27.16, the “ddct (−0.016) (SIRT2)” value (Sirtuin 2 (SIRT2); HFFs, no stress) was 0.817 and the “Relative Expression of SIRT2” value (Sirtuin 2 (SIRT2); HFFs, no stress, media = 1.000) was 0.568. The “dCt (SIRT2)” value (Sirtuin 2 (SIRT2); HFFs, no stress) was 0.833, the “change in SIRT2 expression” value (Sirtuin 2 (SIRT2); HFFs, without stress) was “significant decrease” and the “down regulation of SIRT2 expression” value (Sirtuin 2 (SIRT2); normal fibroblasts) was “approximately 52%”. For the same compound, the “ddct (−2.079) (SIRT3)” value (Sirtuin 3 (SIRT3); HFFs, & stress (150 μM H2O2)) was −0.120, the “Relative Expression of SIRT3” value (Sirtuin 3 (SIRT3); HFFs, & stress (150 μM H2O2), media = 1.000, stress alone 0.794) was 1.086 and the “dCt (SIRT3)” value (Sirtuin 3 (SIRT3); HFFs, & stress (150 μM H2O2)) was 1.959. The “SIRT3 (Ct)” value (Sirtuin 3 (SIRT3); [3]) was 29.3, the “SIRT3 (Ct)” value (Sirtuin 3 (SIRT3); HFFs, no stress) was 28.56 and the “ddct (−2.079) (SIRT3)” value (Sirtuin 3 (SIRT3); HFFs, no stress) was 0.148. For the same compound, the “Relative Expression of SIRT3” value (Sirtuin 3 (SIRT3); HFFs, no stress, media = 1.000) was 0.903, the “dCt (SIRT3)” value (Sirtuin 3 (SIRT3); HFFs, no stress) was 2.227 and the “change in SIRT3 expression” value (Sirtuin 3 (SIRT3); HFFs, following oxidant challenge) was “increase”. For the same compound, the “up regulation of SIRT3 expression” value (Sirtuin 3 (SIRT3); senescent fibroblasts) was “approximately 36%”, the “induction of DNA breaks (from XRCC5 expression)” value (XRCC5) was “does not induce DNA breaks” and the “ddct (−1.292) (XRCC5)” value (XRCC5; & stress (150 μM H2O2)) was −0.141. For the same compound, the “Relative Expression of XRCC5” value (XRCC5; & stress (150 μM H2O2), media = 1.000, stress alone 2.237) was 1.103, the “dCt (XRCC5)” value (XRCC5; & stress (150 μM H2O2)) was −1.433 and the “XRCC5 (Ct)” value (XRCC5; [2]) was 25.9. For the same compound, the “XRCC5 (Ct)” value (XRCC5; no stress) was 25.48, the “ddct (−1.292) (XRCC5)” value (XRCC5; no stress) was 0.444 and the “Relative Expression of XRCC5” value (XRCC5; no stress, media = 1.000) was 0.735. For the same compound, the “dCt (XRCC5)” value (XRCC5; no stress) was −0.848, the “expression of XRCC5 in comparison with the control data set” value (XRCC5; with and without 150 μM H2O2) was “substantially unaltered” and the “effect on hPOT1 expression against oxidant challenge” value (hPOT1; 150 μM H2O2) was “protective effect”. The “ddct (−1.835) (hPOT1)” value (hPOT1; & stress (150 μM H2O2)) was 0.405, the “Relative Expression of hPOT1” value (hPOT1; & stress (150 μM H2O2), media = 1.000, stress alone 1.625) was 0.755 and the “dct (hPOT1)” value (hPOT1; & stress (150 μM H2O2)) was 2.240. For the same compound, the “HPOT1 (Ct)” value (hPOT1; [2]) was 29.5758, the “HPOT1 (Ct)” value (hPOT1; no stress) was 29.47 and the “ddct (−1.835) (hPOT1)” value (hPOT1; no stress) was 1.306. For the same compound, the “Relative Expression of hPOT1” value (hPOT1; no stress, media = 1.000) was 0.404, the “dct (hPOT1)” value (hPOT1; no stress) was 3.141 and the “inhibition of the expression of p65” value (p65) was “does not inhibit”. For the same compound, the “inhibition of the phosphorylation of p65” value (Pp65 (ser 536)) was “does inhibit” and the “inhibition of MMP-9” value (MMP-9) was “clearly demonstrated”.
